Patent US20120190701A1, “RENIN INHIBITORS” (Merck Sharp & Dohme Corp., priority 2009, published 2012)

Experiments:
[1] = target: T1, Human recombinant renin (Homo sapiens, UniProt P00797); assay: Inhibition of human recombinant renin (buffer assay, quenched fluorescent peptide); assay type: biochemical; details: buffer: 50 mM MOPS pH 7.4, 100 mM NaCl, 0.002% Tween 20; 37° C., 3 hours
T1 construct: purchased Proteos
T1 sequence (P00797 67-406): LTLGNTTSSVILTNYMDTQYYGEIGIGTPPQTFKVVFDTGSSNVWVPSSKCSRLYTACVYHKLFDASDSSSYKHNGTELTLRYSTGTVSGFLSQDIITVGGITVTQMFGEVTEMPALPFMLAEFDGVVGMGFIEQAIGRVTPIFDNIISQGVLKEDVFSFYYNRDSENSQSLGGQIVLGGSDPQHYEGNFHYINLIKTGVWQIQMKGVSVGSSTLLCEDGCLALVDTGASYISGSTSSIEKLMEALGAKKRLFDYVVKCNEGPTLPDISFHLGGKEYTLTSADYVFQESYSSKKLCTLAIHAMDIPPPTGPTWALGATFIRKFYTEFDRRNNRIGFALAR
Description: Background fluorescence at t=0 is subtracted from the measurement at t=3 hours. Inhibitory activity of the compounds is expressed as IC50.

[2] = target: T2, recombinant renin in human plasma (Homo sapiens, UniProt P00797); assay: Inhibition of renin in human plasma (quenched fluorescent peptide); assay type: biochemical; details: human EDTA plasma with 1 nM recombinant renin added; 37° C., 1 hour
T2 construct: purchased Proteos
T2 sequence (P00797 67-406): T1 sequence (P00797 67-406)
Description: Human EDTA-collected plasma is rapidly thawed in warm water and centrifuged at 2900 g for 15 minutes at 4° C. The supernatant is collected and recombinant renin (Proteos) is added at a final concentration of 1 nM. […] The plate is incubated at 37° C. for 1 hour. […] Background fluorescence at t=0 is subtracted from the measurement at t=1 hour. Inhibitory activity of the compounds is expressed as IC50.

Row | IC50 [1] | IC50 [2] | SMILES
1 | 0.1 nM | 3.5 nM | COCCCc1cc(CN(C(=O)[C@H]2CNCC[C@@]23OCc2cc(F)c(F)cc23)C2CC2)c2ncccc2c1 (relative stereo) [Example 54, (cis-1,3′)-N-Cyclopropyl-5,6-difluoro-N-{[6-(3-methoxypropyl)-8-quinolinyl]methyl}-3H-spiro[2-benzofuran-1,4′-piperidine]-3′-carboxamide]
2 | 1.2 nM | 4.5 nM | O=C([C@H]1CNCC[C@@]12OCc1cc(F)c(F)cc12)N(Cc1c[nH]c2cccc(F)c12)C1CC1 (relative stereo) [Example 56, (cis-1,3′)-N-cyclopropyl-5,6-difluoro-N-[(4-fluoro-1H-indol-3-yl)methyl]-3H-spiro[2-benzofuran-1,4′-piperidine]-3′-carboxamide]
3 | 0.1 nM | 1.3 nM | COCCCc1cc(CCCOC)c(Cl)c(CN(C(=O)[C@H]2CNCC[C@@]23OCc2cc(F)c(F)cc23)C2CC2)c1 (relative stereo) [Example 53]
4 | 0.7 nM | 2.3 nM | COCCCc1cc(CN(C(=O)[C@H]2CNCC[C@@]23OCc2cc(F)c(F)cc23)C2CC2)c2ccccc2n1 (relative stereo) [Example 48, (cis-1,3′)-N-Cyclopropyl-5,6-difluoro-N-{[2-(3-methoxypropyl)-4-quinolinyl]methyl}-3H-spiro[2-benzofuran-1,4′-piperidine]-3′-carboxamide]
5 | 0.1 nM | 0.6 nM | COCCc1cc(C)c(C)c(CN(C(=O)[C@H]2CNCC[C@@]23OCc2cc(F)c(F)cc23)C2CC2)c1 (relative stereo) [Example 45, (cis-1,3′)-N-Cyclopropyl-5,6-difluoro-N-[5-(2-methoxyethyl)-2,3-dimethylbenzyl]-3H-spiro[2-benzofuran-1,4′-piperidine]-3′-carboxamide]
